Assay results taken from patent publication US20070225213A1, “Nucleic acid carriers for delivery of therapeutic agents” (priority 2006, published 2007).

Key:
MCF7 cells = experiment: Drug loading vs toxicity at fixed [drug], MTT viability assay (Example 4); format: cell-based, human; conditions: Drug only, without carrier; 0.058 mM MTN; 72 hours
Description: FIG. 1. […] NAC-MTN or NAC-DOX were prepared at different weight:weight % of drug:nucleic acid and incubated in cells. For each sample and corresponding % loading, the total drug was held constant at 0.058 mM MTN or 0.1 mM DOX. After incubation in cells, cell viability was assayed via mitochondrial dehydrogenase activity against 3-[4,5-dimethylthiazol-2-yl]-2,5-diphenyl tetrazolium bromide (MTT) and reported as % toxicity relative to untreated cells.
Mitoxantrone (MTN, Sigma Aldrich) and Doxorubicin HCl (DOX) were diluted in HBSS to 1 mg/ml final. DNA, from degraded herring sperm DNA <40 bp (HSDNA, Sigma Aldrich), was prepared in water at 10 mg/ml. The drug was diluted in water or HBSS first, followed by addition of the DNA, in order to prevent precipitation. Precipitation of drug was especially a concern at 40% loading of MTN, which is the loading limit for HSDNA (degraded) and so the DNA is added slowly to the diluted MTN (the reverse addition leads to precipitation). All NAC-MTN formulation stocks were prepared at 0.15 mg/ml final MTN, and different concentration of DNA in order to give 15, 25, and 35.7% final drug loading w/w % of MTN/DNA in 0.5 ml final volume. All NAC-DOX formulations were prepared at 0.3 mg/ml final DOX, and either 5, 10, or 15% loaded drug weight/weight % of DOX/DNA in 0.5 ml final volume. […]

COS7 = experiment: Effect of plating time on uptake of NAC-MTN and MTN, fluorescence (Example 11); format: cell-based, green monkey
Description: The effect of plating time on the differential rates of uptake between NAC-MTN and MTN were assayed in cells treated <1 hour and 24 hours after plating.
On day 1, MCF7, COS7, 3T3, and BHK21 cells were plated out in a standard tissue culture plate. After incubation of 20 minutes samples were added to cells in rows A, C, E, and G. Cells were incubated at 37C in a standard atmosphere of 5%CO2.
On day 2, samples were added to rows D, F, and H and the fluorescence was obtained EX620/EM680 S=80. Samples were removed from A,C,E and G, replaced with media and fluorescence read again. On day 2 observed significant drug toxicity in cells of rows A,C, E, G. Sample addition was postponed in row B since MCF7 were not yet confluent.
On day 3, added samples to cells in row B containing confluent MCF7's, removed samples from rows D, F, and H replaced with media and read fluorescence.
Fluorescence data from cells taken after removal of media was used to quantitate total MTN retained in the cells. Fluorescence data were converted to mg/ml MTN using a standard curve prepared with free MTN or NAC-MTN.
The percentage difference in fluorescence between cells treated with NAC-MTN or MTN alone was used to compare relative drug uptake.
The MTN fluorescence ratios were obtained by dividing MTN fluorescence of cells incubated for 24 hours by fluorescence of cells incubated 30 minutes. […] The uptake in BHK21 was roughly equivalent for NAC-MTN regardless of plate adherence, however it should be noted that BHK21 adhere very rapidly to the plate.
Fluorescence data were converted to micromolar drug concentrations (uM MTN) using a standard curve for either nucleic acid bound or unbound drug, and drug uptake ratios were obtained by dividing the t(24 hour)/t(30 min.). The ratios of absolute drug concentration per well show more dramatic differences in uptake as shown below.

[1] = intravenous administration; cited from earlier work

O=C1c2c(O)ccc(O)c2C(=O)c2c(NCCNCCO)ccc(NCCNCCO)c21 [MTN, mitoxantrone]
% Tox (MCF7 cells): 79% | MTN FLUOR Ratio of t(24)/t(<1) (COS7): 0.70 | FLUOR (MTN fluorescence in cells) (COS7; cells treated 24 hour after plating): 15289 | FLUOR (MTN fluorescence in cells) (COS7; cells treated <1 hour after plating): 13814 | Ratio uM MTN of t(24)/t(<1) (COS7; from standard curve for bound or unbound drug): 1.2 | elimination half life [1]: 12 days
